Test results published in patent US9833497B2, “Human originated EGF domain proteins and use of the same” (CHENGDU SOURCEBIO LIMITED-LIABILITY COMPANY, priority 2013, dated 2017).

How the values were obtained:
Format in all cases: cell-based
[1] = test system: E. coli DH5α; experiment: Antibacterial activity: MIC and growth curve against E. coli DH5α in 96-well plate; details: minimal inhibitory concentration against E. coli DH5α; 96-well plate, 5×10^5 CFU/mL, 37° C., judged after 8 h
Procedure, shortened: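 Log-phase DH5α (OD600 about 0.5, 37° C, 185 rpm in LB) was pelleted, resuspended in fresh LB and seeded at 5×10^5 CFU/mL with recombinant protein at 50, 25 and 12.5 μg/mL (two-fold series), in triplicate. Plates were shaken at 175 rpm, 37° C, and OD600 was read every 30 min. MIC was the lowest concentration with no growth.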

[2] = test system: E. coli BL21; experiment: MIC against Gram-negative bacteria: E. coli BL21; details: E. coli BL21; 10 h cultivation at 37° C.; 5×10^5 CFU/mL
Procedure, shortened: (§1)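 First, colonies from LB agar were grown in LB at 37° C, 185 rpm, to McFarland turbidity 0.5, then centrifuged and resuspended in fresh LB. Next, wells received 5×10^5 CFU/mL bacteria plus two-fold serially diluted EGF domain protein (triplicate). Finally, plates were shaken at 37° C and the no-growth concentration taken as MIC.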

[3] = test system: Pseudomonas aeruginosa; experiment: MIC against Gram-negative bacteria: Pseudomonas aeruginosa; details: P. aeruginosa; 10 h cultivation at 37° C.; 5×10^5 CFU/mL
Procedure, shortened: as §1

[4] = test system: Klebsiella pneumonia; experiment: MIC against Gram-negative bacteria: Klebsiella pneumonia; details: K. pneumonia; 10 h cultivation at 37° C.; 5×10^5 CFU/mL
Procedure, shortened: as §1

[5] = test system: Enterobacter cloacae; experiment: MIC against Gram-negative bacteria: Enterobacter cloacae; details: E. cloacae; 10 h cultivation at 37° C.; 5×10^5 CFU/mL
Procedure, shortened: as §1

[6] = test system: Aeromonas hydrophila; experiment: MIC against Gram-negative bacteria: Aeromonas hydrophila; details: A. hydrophila; 10 h cultivation at 37° C.; 5×10^5 CFU/mL
Procedure, shortened: as §1

[7] = test system: Citrobacter diversus; experiment: MIC against Gram-negative bacteria: Citrobacter diversus; details: C. diversus; 10 h cultivation at 37° C.; 5×10^5 CFU/mL
Procedure, shortened: as §1

[8] = test system: Moraxella catarrhalis; experiment: MIC against Gram-negative bacteria: Moraxella catarrhalis; details: M. catarrhalis; 10 h cultivation at 37° C.; 5×10^5 CFU/mL
Procedure, shortened: as §1

[9] = test system: Proteus mirabilis; experiment: MIC against Gram-negative bacteria: Proteus mirabilis; details: P. mirabilis; 10 h cultivation at 37° C.; 5×10^5 CFU/mL
Procedure, shortened: as §1

[10] = test system: Proteus vulgaris; experiment: MIC against Gram-negative bacteria: Proteus vulgaris; details: P. vulgaris; 10 h cultivation at 37° C.; 5×10^5 CFU/mL
Procedure, shortened: as §1

[11] = test system: Serratia marcescens; experiment: MIC against Gram-negative bacteria: Serratia marcescens; details: S. marcescens; 10 h cultivation at 37° C.; 5×10^5 CFU/mL
Procedure, shortened: as §1

Substance | MIC [1] | MIC (μg/mL) E. coli BL21 [2] | MIC (μg/mL) P. aeruginosa [3] | MIC (μg/mL) K. pneumonia [4] | MIC (μg/mL) E. cloacae [5] | MIC (μg/mL) A. hydrophila [6] | MIC (μg/mL) C. diversus [7] | MIC (μg/mL) M. catarrhalis [8] | MIC (μg/mL) P. mirabilis [9] | MIC (μg/mL) P. vulgaris [10] | MIC (μg/mL) S. marcescens [11]
PRT152 (LPCPGGTERPCGGYGQCEGEGTRGGSGHCDCQAGYGGEACG; listed as Homo sapiens) | 12.5 µg/mL | 12.5 µg/mL | 12.5 µg/mL | 12.5 µg/mL | 12.5 µg/mL | 12.5 µg/mL | 25 µg/mL | 12.5 µg/mL | 25 µg/mL | 12.5 µg/mL | 12.5 µg/mL
PRT153 (DCLACQGGSQRPCSGNGHCSGDGSRQGDGSCRCHMGYQGPLCT; listed as Homo sapiens) | 12.5 µg/mL | 100 µg/mL | 50 µg/mL | 12.5 µg/mL | 25 µg/mL | 50 µg/mL | 25 µg/mL | 12.5 µg/mL | 50 µg/mL | 12.5 µg/mL | 50 µg/mL
PRT154 (DVDECSLAEKTCVRKNENCYNTPGSYVCVCPDGFEETEDACV; listed as Homo sapiens) | 12.5 µg/mL | 50 µg/mL | 12.5 µg/mL | 25 µg/mL | 50 µg/mL | 12.5 µg/mL | 25 µg/mL | 50 µg/mL | 25 µg/mL | 12.5 µg/mL | 25 µg/mL
PRT155 (APGPCAAQPCRNGGVCTSRPEPDPQHPAPAGEPGYSCTCPAGISGANCQ; listed as Homo sapiens) | 12.5 µg/mL | 25 µg/mL | 12.5 µg/mL | 25 µg/mL | 12.5 µg/mL | 25 µg/mL | 12.5 µg/mL | 25 µg/mL | 12.5 µg/mL | 25 µg/mL | 12.5 µg/mL
PRT156 (DINECDSNPCHHGGSCLDQPNGYNCHCPHGWVGANCE; listed as Homo sapiens) | 25 µg/mL | 12.5 µg/mL | 12.5 µg/mL | 25 µg/mL | 12.5 µg/mL | 25 µg/mL | 12.5 µg/mL | 50 µg/mL | 12.5 µg/mL | 50 µg/mL | 50 µg/mL
PRT157 (VADPCASNPCHHGNCSSSSSSSSDGYLCICNEGYEGPNCE; listed as Homo sapiens) | 12.5 µg/mL | 50 µg/mL | 25 µg/mL | 12.5 µg/mL | 25 µg/mL | 12.5 µg/mL | 12.5 µg/mL | 12.5 µg/mL | 12.5 µg/mL | 12.5 µg/mL | 12.5 µg/mL
PRT158 (PGESHANDLECSGKGKCTTKPSEATFSCTCEEQYVGTFCE; listed as Homo sapiens) | 12.5 µg/mL | 12.5 µg/mL | 50 µg/mL | 12.5 µg/mL | 50 µg/mL | 25 µg/mL | 12.5 µg/mL | 25 µg/mL | 50 µg/mL | 25 µg/mL | 12.5 µg/mL
